In US8828474B2, “Apparatus and methods for loading a drug eluting medical device” (Medtronic Vascular, Inc., priority 2009, dated 2014):

Assay: Solubility of sirolimus in solvents / dispersion media
Format: physicochemical
Protocol: Solution 524 is a homogeneous mixture in which therapeutic substance 112 dissolves within a solvent or a solvent mixture. In one embodiment, solution 524 includes a high-capacity solvent 528 which is an organic solvent that has a high capacity to dissolve therapeutic substance 112. High capacity as utilized herein is defined as an ability to dissolve therapeutic substance 112 at concentrations greater than 500 mg of substance per milliliter of solvent. Examples of high capacity drug dissolving solvents for sirolimus and similar substances include but are not limited to tetrahydrofuran (THF), di-chloromethane (DCM), chloroform, and di-methyl-sulfoxide (DMSO). In addition to the high-capacity solvent, solution 524 may include an excipient 526 in order to assist in drug elution. In one embodiment, excipient 526 may be a surfactant such as but not limited to sorbitan fatty acid esters such as sorbitan monooleate and sorbitan monolaurate, polysorbates such as polysorbate 20, polysorbate 60, and polysorbate 80, cyclodextrins such as 2-hydroxypropyl-beta-cyclodextrin and 2,6-di-O-methyl-beta-cyclodextrin, sodium dodecyl sulfate, octyl glucoside, and low molecular weight poly(ethylene glycol)s. In another embodiment, excipient 526 may be a hydrophilic agent such as but not limited to salts such as sodium chloride and other materials such as urea, citric acid, and ascorbic acid. […]

solubility in hexane: insoluble
Structure (SMILES): CO[C@H]1C[C@@H]2CC[C@@H](C)[C@@](O)(O2)C(=O)C(=O)N2CCCC[C@H]2C(=O)O[C@H]([C@H](C)C[C@@H]2CC[C@@H](O)[C@H](OC)C2)CC(=O)[C@H](C)/C=C(\C)[C@@H](O)[C@@H](OC)C(=O)[C@H](C)C[C@H](C)/C=C/C=C/C=C/1C [sirolimus]
